Among the data in ChEMBL document CHEMBL5696441 (Nat Chem Biol, 2011) are Activity values, retold here.

Assay [1] concerns the target Cyclin-dependent kinase 3 (Homo sapiens) (UniProt Q00526). Description: Inhibition of CDK3 (unknown origin) assessed as remaining activity at 1 uM by Kinome scan method relative to control.
The target of assay [2] is Cyclin-dependent kinase 17 (Homo sapiens) (UniProt Q00537). The experiment in a line: Inhibition of PCTK2 (unknown origin) assessed as remaining activity at 1 uM by Kinome scan method relative to control.
Assay [3] concerns the target T1, Serine/threonine-protein kinase TAO3 (Homo sapiens) (UniProt Q9H2K8).
T1 sequence (whole entry): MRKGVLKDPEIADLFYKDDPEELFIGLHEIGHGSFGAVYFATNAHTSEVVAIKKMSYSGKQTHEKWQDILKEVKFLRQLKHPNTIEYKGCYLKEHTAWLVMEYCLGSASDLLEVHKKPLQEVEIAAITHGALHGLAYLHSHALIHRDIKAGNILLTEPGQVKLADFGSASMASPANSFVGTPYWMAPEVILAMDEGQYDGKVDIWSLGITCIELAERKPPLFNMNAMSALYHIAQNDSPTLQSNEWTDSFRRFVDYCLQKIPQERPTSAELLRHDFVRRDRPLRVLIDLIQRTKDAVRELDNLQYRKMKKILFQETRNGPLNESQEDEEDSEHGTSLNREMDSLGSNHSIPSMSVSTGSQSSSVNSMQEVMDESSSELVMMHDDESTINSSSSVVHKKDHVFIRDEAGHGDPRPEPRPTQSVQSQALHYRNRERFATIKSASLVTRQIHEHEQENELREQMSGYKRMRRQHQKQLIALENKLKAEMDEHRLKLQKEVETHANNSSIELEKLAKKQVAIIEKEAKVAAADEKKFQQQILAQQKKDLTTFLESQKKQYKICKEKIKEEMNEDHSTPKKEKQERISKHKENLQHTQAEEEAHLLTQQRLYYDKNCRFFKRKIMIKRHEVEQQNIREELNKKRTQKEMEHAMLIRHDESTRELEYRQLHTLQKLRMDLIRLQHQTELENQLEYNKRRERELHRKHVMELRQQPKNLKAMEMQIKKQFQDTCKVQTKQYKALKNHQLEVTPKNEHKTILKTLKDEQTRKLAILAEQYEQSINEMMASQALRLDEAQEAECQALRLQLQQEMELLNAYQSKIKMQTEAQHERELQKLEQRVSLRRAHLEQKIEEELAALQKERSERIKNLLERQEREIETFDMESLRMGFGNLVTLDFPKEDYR
The experiment in a line: Inhibition of TAOK3 (unknown origin) assessed as remaining activity at 1 uM by Kinome scan method relative to control.

The target in assay [4] is T2, Serine/threonine-protein kinase DCLK2 (Homo sapiens) (UniProt Q8N568).
T2 sequence (whole entry): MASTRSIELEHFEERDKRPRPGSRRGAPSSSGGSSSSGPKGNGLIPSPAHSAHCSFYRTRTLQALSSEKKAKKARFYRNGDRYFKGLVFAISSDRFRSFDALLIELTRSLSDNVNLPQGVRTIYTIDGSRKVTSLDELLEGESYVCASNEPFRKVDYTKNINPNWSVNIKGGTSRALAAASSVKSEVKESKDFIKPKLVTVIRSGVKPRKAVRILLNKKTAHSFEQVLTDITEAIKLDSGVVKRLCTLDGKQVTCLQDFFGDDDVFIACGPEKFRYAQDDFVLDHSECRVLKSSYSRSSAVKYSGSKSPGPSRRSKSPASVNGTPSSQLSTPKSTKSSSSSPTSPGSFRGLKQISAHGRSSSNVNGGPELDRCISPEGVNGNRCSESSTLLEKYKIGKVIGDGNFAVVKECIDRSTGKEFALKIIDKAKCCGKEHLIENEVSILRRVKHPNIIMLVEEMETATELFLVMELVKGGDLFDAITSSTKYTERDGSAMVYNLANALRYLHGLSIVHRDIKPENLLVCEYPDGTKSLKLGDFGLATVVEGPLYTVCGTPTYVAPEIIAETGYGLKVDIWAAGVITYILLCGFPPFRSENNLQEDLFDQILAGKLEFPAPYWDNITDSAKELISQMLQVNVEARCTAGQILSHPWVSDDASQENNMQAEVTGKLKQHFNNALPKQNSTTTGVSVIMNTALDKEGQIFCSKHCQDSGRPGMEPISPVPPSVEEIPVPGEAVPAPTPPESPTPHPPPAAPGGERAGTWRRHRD
Description: Inhibition of DCAMKL2 (unknown origin) assessed as remaining activity at 1 uM by Kinome scan method relative to control.

For assay [5], the target named is Serine/threonine-protein kinase RIO1 (Homo sapiens) (UniProt Q9BRS2). The experiment in a line: Inhibition of RIOK1 (unknown origin) assessed as remaining activity at 1 uM by Kinome scan method relative to control.
Assay [6] concerns the target Mitogen-activated protein kinase kinase kinase kinase 4 (Homo sapiens) (UniProt O95819). Description: Inhibition of MAP4K4 (unknown origin) assessed as remaining activity at 1 uM by Kinome scan method relative to control.
Assay [7] concerns the target T3, Serine/threonine-protein kinase Chk1 (Homo sapiens) (UniProt O14757).
T3 sequence (whole entry): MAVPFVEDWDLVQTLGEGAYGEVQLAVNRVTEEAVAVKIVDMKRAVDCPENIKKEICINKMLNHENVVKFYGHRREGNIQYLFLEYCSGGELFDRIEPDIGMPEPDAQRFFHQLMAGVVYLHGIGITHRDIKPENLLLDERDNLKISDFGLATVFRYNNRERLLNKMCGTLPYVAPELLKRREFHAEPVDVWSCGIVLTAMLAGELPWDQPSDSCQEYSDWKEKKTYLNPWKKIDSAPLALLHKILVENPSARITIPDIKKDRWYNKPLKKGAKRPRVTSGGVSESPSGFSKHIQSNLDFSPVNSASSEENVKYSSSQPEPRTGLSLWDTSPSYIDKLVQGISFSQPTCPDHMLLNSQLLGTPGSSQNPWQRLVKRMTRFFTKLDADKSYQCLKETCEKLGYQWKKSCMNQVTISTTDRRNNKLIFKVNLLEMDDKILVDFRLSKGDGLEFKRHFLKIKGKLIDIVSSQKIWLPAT
The experiment in a line: Inhibition of CHEK1 (unknown origin) assessed as remaining activity at 1 uM by Kinome scan method relative to control.

The target of assay [8] is Myosin-IIIb (Homo sapiens) (UniProt Q8WXR4). Description: Inhibition of MYO3B (unknown origin) assessed as remaining activity at 1 uM by Kinome scan method relative to control.
Assay [9] has as its target Serine/threonine-protein kinase MARK2 (Homo sapiens) (UniProt Q7KZI7). The experiment in a line: Inhibition of MARK2 (unknown origin) assessed as remaining activity at 1 uM by Kinome scan method relative to control.
Assay [10] relates to Tyrosine-protein kinase ABL1 (Homo sapiens), P00519 [E255K]. Description: Inhibition of ABL1 E255K mutant (unknown origin) assessed as remaining activity at 1 uM by Kinome scan method relative to control.
In assay [11] the target is Serine/threonine-protein kinase 38 (Homo sapiens) (UniProt Q15208). The experiment in a line: Inhibition of NDR1 (unknown origin) assessed as remaining activity at 1 uM by Kinome scan method relative to control.
Serine/threonine-protein kinase 38 (Homo sapiens), sequence (Q15208 2-465 limits assumed): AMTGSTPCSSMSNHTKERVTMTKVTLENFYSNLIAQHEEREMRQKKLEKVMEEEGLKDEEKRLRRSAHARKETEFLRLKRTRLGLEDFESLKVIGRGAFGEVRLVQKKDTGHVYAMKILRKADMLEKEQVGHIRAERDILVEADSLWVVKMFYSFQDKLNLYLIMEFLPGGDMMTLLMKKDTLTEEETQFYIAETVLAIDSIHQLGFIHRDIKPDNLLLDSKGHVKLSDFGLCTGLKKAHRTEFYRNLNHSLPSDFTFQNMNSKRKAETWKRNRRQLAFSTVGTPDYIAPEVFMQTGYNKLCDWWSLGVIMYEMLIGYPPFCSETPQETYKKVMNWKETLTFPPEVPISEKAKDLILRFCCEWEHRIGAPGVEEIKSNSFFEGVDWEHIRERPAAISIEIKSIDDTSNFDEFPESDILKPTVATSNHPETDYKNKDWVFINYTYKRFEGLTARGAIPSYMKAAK

Myosin-IIIb (Homo sapiens), sequence (Q8WXR4 whole entry): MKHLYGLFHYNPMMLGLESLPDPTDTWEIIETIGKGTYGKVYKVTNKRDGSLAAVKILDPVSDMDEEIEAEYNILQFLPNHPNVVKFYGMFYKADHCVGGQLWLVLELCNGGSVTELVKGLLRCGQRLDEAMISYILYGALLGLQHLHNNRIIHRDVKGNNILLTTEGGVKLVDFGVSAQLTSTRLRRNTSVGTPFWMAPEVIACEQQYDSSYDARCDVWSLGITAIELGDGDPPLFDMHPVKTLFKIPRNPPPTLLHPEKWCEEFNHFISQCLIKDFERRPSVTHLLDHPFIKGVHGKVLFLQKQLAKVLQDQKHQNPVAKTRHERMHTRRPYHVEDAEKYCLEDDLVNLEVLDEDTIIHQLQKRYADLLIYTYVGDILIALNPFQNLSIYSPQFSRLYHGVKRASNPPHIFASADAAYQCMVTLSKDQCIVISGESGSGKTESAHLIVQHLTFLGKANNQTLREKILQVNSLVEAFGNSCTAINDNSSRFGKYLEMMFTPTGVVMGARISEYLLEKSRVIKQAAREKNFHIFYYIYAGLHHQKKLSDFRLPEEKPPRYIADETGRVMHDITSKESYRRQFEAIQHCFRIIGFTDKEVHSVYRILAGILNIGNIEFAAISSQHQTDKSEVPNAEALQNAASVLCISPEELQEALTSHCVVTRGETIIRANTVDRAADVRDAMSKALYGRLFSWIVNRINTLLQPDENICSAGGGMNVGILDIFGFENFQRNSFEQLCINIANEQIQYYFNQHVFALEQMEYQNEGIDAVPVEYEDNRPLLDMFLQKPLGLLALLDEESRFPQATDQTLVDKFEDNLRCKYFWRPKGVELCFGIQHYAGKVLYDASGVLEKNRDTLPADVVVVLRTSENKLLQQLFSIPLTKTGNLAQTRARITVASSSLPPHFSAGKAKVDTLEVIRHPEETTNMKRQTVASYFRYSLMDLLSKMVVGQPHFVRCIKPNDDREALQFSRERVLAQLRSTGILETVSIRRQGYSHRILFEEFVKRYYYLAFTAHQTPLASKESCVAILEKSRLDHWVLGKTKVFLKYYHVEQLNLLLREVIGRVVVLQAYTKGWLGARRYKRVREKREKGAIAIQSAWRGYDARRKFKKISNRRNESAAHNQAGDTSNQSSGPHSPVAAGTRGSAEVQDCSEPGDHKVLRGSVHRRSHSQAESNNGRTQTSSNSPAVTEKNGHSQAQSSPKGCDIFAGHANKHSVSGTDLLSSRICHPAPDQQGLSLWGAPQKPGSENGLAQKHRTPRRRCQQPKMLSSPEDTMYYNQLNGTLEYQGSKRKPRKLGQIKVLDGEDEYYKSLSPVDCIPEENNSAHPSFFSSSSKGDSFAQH
Mitogen-activated protein kinase kinase kinase kinase 4 (Homo sapiens), sequence (O95819 2-1239 limits assumed): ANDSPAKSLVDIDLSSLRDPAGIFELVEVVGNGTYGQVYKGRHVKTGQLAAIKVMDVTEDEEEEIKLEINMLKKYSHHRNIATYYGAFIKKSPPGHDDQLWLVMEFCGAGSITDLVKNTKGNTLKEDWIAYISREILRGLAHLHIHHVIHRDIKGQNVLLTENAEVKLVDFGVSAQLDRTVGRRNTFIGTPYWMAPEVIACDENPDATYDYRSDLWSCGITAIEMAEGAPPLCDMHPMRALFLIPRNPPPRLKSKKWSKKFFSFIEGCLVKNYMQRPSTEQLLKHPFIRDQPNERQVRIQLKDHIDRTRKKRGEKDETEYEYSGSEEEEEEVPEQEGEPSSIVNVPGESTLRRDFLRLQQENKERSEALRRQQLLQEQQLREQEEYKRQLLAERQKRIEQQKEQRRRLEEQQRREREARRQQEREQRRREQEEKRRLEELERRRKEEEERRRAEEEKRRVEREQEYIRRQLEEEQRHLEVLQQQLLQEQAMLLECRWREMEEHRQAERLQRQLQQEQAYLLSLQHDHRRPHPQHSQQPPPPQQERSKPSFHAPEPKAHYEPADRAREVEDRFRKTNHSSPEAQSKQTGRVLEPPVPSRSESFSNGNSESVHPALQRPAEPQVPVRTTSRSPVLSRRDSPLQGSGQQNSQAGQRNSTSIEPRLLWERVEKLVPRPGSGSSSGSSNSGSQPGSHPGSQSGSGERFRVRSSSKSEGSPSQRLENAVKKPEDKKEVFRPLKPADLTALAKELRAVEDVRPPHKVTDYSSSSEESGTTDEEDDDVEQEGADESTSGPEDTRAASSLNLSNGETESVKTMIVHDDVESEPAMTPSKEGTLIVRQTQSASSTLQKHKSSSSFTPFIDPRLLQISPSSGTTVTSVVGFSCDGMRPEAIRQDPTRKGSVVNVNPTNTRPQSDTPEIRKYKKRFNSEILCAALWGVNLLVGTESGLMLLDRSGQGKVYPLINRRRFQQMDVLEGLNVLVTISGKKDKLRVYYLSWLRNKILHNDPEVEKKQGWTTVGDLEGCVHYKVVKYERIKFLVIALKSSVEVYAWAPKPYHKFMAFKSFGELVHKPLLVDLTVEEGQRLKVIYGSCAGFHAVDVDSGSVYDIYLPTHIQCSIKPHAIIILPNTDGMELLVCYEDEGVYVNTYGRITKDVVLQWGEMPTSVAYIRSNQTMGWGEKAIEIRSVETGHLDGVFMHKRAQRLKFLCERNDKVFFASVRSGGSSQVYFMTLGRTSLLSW
Tyrosine-protein kinase ABL1 (Homo sapiens), P00519 [E255K], sequence (P00519 whole entry E255K): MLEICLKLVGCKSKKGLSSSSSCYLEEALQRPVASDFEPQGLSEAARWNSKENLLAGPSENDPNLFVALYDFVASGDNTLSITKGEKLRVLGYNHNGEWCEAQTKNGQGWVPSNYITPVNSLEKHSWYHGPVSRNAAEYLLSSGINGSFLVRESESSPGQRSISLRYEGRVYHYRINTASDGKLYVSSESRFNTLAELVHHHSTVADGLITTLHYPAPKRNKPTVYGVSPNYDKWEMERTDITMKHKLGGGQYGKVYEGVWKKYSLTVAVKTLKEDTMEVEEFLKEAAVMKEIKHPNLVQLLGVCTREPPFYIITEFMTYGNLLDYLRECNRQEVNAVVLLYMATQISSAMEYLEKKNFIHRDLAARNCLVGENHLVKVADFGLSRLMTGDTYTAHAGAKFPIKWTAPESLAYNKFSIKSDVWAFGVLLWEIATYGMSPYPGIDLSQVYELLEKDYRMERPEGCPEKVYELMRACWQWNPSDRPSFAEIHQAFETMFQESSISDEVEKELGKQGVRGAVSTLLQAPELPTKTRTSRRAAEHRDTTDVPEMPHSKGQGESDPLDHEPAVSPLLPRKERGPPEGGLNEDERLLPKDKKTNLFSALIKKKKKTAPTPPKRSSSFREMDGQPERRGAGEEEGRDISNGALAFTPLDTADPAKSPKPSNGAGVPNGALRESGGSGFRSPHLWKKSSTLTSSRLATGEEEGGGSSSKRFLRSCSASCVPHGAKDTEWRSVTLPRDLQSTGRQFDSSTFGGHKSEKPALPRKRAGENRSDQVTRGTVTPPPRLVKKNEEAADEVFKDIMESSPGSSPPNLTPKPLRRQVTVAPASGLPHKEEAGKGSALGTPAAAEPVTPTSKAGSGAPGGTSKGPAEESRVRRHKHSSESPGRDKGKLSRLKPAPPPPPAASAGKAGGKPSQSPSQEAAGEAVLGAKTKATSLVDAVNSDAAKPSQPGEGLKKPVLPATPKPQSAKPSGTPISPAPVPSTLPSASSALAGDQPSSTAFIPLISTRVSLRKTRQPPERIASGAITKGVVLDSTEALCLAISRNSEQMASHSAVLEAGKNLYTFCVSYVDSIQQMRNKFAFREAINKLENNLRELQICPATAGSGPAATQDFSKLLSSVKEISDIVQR
Cyclin-dependent kinase 3 (Homo sapiens), sequence (Q00526 whole entry, looked up): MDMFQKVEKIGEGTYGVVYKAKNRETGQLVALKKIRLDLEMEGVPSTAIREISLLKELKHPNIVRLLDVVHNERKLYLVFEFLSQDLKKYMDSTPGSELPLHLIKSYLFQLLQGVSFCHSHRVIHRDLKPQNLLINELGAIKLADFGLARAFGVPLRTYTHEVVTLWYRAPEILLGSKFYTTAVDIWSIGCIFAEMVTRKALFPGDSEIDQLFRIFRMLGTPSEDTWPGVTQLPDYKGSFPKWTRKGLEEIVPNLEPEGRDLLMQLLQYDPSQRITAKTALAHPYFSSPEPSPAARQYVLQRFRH
Cyclin-dependent kinase 17 (Homo sapiens), sequence (Q00537 whole entry, looked up): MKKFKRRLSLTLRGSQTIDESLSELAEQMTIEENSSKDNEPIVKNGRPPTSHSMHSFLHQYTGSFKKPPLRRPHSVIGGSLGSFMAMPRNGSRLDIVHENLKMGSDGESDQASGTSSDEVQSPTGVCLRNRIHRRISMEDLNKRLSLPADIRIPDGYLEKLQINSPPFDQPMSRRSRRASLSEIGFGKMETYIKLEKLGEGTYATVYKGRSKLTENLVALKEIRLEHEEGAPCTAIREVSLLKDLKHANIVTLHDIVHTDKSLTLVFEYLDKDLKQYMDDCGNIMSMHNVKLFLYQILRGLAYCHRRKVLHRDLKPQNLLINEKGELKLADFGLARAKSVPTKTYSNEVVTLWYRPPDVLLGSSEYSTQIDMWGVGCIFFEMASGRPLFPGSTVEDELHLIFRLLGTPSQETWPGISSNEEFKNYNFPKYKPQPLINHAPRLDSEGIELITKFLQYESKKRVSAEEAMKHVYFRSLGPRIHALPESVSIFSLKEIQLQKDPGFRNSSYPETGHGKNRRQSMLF

On to `Nc1ccccc1Nc1ccc2c(c1)CCc1ccccc1C2=O`, for which the Activity in assay [1] worked out at 85%; in [2] it was 93%; in [3], 99%; in assay [4] it was 98%; in assay [5], 94%; in assay [6], 94%. Also, the Activity in [7] amounted to 86%; in assay [8] it was 93%; in [9], 72%; in assay [10], 81%; in assay [11], 81%.
Regarding `O=C1c2ccc(Nc3ccc(F)cc3F)cc2CCc2ccc(OC[C@H](O)CO)cc21` [Skepinone-L], the Activity came out at 96% in assay [1]; 89% in assay [2]; 100% in assay [3]; 88% in assay [4]; 95% in [5]; 100% in [6]. Besides, the Activity worked out at 94% in assay [7]; 99% in assay [8]; 97% in [9]; 96% in assay [10]; 87% in assay [11].
